Measured values: US8178548B2, “Anti-infective agents and uses thereof” (priority 2007, dated 2012)
Read-outs that look alike come from different tables or passages of the source.

What was measured:
[1] = test system: genotype 1a-H77 subgenomic replicon cell line; assay: HCV Polymerase Replicon Assay, genotype 1a-H77 (luciferase reporter); format: cell-based; conditions: Hepatitis C virus, 72 h, read-out: EC50 1a
[2] = test system: genotype 1b-Con1 subgenomic replicon cell line; assay: HCV Polymerase Replicon Assay, genotype 1b-Con1 (luciferase reporter); format: cell-based; conditions: Hepatitis C virus, 72 h, read-out: EC50 1b
[3] = biological target: T1, HCV polymerase 1B (Δ21 NS5B, HCV Strain 1B BK) (Hepatitis C virus genotype 1b, UniProt P26663); assay: biochemical
T1 construct: 20 to 50 nM Δ21 NS5B
Description: (§1) Either two-fold serial dilutions (fractional inhibition assay) or a narrower range of dilutions spanning the IC50 of the inhibitor (tight binding assay) of the inhibitors were incubated with 20 mM Tris-Cl pH 7.4, 2 mM MnCl2, 1 mM dithiothreitol, 1 mM ethylene diamine tetraacetic acid (EDTA), 60 to 125 μM GTP and 20 to 50 nM Δ21 NS5B (HCV Strain 1B (BK, Genbank accession number M58335, or H77, Genbank accession number AF011751)) for 15 min at room temperature. The reaction was initiated by the addition of 20 μM CTP, 20 μM ATP, 1 μM ^3H-UTP (10 mCi/umol), 5 nM template RNA and 0.1 U/μl RNase inhibitor (RNasin, Promega), and allowed to proceed for 2 to 4 h at room temperature. Reaction volume was 50 μl. The reaction was terminated by the addition of 1 volume of 4 mM spermine in 10 mM Tris-Cl pH 8.0, 1 mM EDTA. After incubation for at least 15 min at room temperature, the precipitated RNA was captured by filtering through a GF/B filter (Millipore) in a 96 well format. The filter plate was washed three times with 200 μl each of 2 mM spermine, 10 mM Tris-Cl pH 8.0, 1 mM EDTA, and 2 times with ethanol. After air-drying, 30 μl of Microscint 20 scintillation cocktail (Packard) was added to each well, and the retained cpm were determined by scintillation counting. […] Retained cpm were plotted vs. inhibitor concentration and fit to equation 1 using non-linear regression (ref. 1) to obtain the IC50 values: Retained cpm=A[sqrt{(IC50+It−Et)^2+4*IC50*Et}−(IC50+It−Et)]
(§2) Ref. Morrison, J. F. and S. R. Stone. 1985. Approaches to the study and analysis of the inhibition of enzymes by slow- and tight-binding inhibitors. Comments Mol. Cell. Biophys. 2: 347-368.
(§3) The sequence of the template RNA used was: 5′-[…] […] […] […] […] […] […] […] […] […] […] […] […] […] […] […] […]-3′ (SEQ ID NO:1).

[4] = biological target: T2, HCV polymerase 1A (Δ21 NS5B, H77) (Hepatitis C virus genotype 1a, UniProt P27958); assay: biochemical
T2 construct: 20 to 50 nM Δ21 NS5B
Description: as §1, §2, §3

T1 sequence (P26663 2420-2989, stated change not applied): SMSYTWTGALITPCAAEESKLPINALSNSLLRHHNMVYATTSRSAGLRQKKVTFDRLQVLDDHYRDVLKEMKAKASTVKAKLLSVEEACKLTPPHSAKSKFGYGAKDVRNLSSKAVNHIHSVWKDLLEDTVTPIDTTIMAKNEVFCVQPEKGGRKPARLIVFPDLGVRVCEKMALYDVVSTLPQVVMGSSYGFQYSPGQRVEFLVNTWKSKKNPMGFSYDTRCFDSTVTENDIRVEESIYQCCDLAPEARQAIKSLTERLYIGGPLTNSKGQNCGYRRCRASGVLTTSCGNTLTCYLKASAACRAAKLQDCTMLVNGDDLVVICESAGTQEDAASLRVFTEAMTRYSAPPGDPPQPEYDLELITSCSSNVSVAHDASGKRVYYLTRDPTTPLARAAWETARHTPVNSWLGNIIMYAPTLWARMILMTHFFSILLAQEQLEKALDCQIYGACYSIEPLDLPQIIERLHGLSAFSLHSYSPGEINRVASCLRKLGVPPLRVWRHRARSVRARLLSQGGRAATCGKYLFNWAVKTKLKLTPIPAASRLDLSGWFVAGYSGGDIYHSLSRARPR
T2 sequence (P27958 2421-2990, stated change not applied): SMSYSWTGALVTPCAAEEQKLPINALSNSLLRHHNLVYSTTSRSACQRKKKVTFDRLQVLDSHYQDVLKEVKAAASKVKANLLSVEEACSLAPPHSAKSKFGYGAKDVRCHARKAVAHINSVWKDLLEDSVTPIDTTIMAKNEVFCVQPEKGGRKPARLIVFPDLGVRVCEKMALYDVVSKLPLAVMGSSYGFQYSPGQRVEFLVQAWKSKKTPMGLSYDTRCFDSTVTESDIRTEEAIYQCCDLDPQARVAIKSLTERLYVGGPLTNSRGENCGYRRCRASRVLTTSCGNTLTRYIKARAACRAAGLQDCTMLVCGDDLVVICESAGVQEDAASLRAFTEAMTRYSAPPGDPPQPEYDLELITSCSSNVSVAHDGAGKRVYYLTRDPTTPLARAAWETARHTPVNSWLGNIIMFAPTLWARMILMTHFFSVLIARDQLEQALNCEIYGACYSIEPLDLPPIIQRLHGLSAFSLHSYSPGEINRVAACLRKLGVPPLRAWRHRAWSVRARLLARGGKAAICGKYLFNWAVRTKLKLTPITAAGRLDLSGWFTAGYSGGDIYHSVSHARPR

Compound	EC50 [1]	EC50 [2]	IC50 [3]	IC50 [4]	EC50 ([2]; replicon 1b-Con1, luciferase, three days)
COc1c(C=C(F)c2ccc(NS(C)(=O)=O)cc2)cc(N2CCC(=O)NC2=O)cc1C(C)(C)C (racemic) [IA-L1-1.21, N-(4-(2-(3-tert-butyl-5-(2,4-dioxotetrahydropyrimidin-1(2H)-yl)-2-methoxyphenyl) 1-fluorovinyl)phenyl)methanesulfonamide]	< 0.01 µM	< 0.01 µM	0.01 to 0.1 µM	0.01 to 0.1 µM	–
COc1c(/C=C(\Cl)c2ccc(NS(C)(=O)=O)cc2)cc(N2CCC(=O)NC2=O)cc1C(C)(C)C [IA-L1-1.3, (Z)-N-(4-(2-(3-tert-butyl-5-(2,4-dioxotetrahydropyrimidin-1(2H)-yl)-2-methoxyphenyl)-1-chlorovinyl)phenyl)methanesulfonamide]	0.01 to 0.1 µM	< 0.01 µM	< 0.01 µM	< 0.01 µM	–
COc1c(/C=C(\F)c2ccc(NS(C)(=O)=O)cc2)cc(N2CCC(=O)NC2=O)cc1C(C)(C)C [IA-L1-1.4, (Z)-N-(4-(2-(3-tert-butyl-5-(2,4-dioxotetrahydropyrimidin-1(2H)-yl)-2-methoxyphenyl)-1-fluorovinyl)phenyl)methanesulfonamide]	< 0.01 µM	< 0.01 µM	< 0.01 µM	< 0.01 µM	–
COc1c(/C=C(/F)c2ccc(NS(C)(=O)=O)cc2)cc(N2CCC(=O)NC2=O)cc1C(C)(C)C [IA-L1-1.5, (E)-N-(4-(2-(3-tert-butyl-5-(2,4-dioxotetrahydropyrimidin-1(2H)-yl)-2-methoxyphenyl)-1-fluorovinyl)phenyl)methanesulfonamide]	0.01 to 0.1 µM	< 0.01 µM	0.01 to 0.1 µM	< 0.01 µM	–
COc1c(/C=C(\C)c2ccc(NS(C)(=O)=O)cc2)cc(N2CCC(=O)NC2=O)cc1C(C)(C)C [IA-L1-1.6, (E)-N-(4-(1-(3-tert-butyl-5-(2,4-dioxotetrahydropyrimidin-1(2H)-yl)-2-methoxyphenyl)prop-1-en-2-yl)phenyl)methanesulfonamide]	0.01 to 0.1 µM	0.01 to 0.1 µM	0.01 to 0.1 µM	< 0.01 µM	–
COc1c(/C=C/c2ccc(NS(C)(=O)=O)cc2)cc(N2CCC(=O)NC2=O)cc1C(C)(C)C [IA-L1-1.9, (E)-N-(4-(3-tert-butyl-5-(2,4-dioxotetrahydropyrimidin-1(2H)-yl)-2-methoxystyryl)phenyl)methanesulfonamide]	0.01 to 0.1 µM	< 0.01 µM	0.01 to 0.1 µM	< 0.01 µM	–
COc1c(/C=C/c2ccc(N(C(C)=O)S(C)(=O)=O)cc2)cc(N2CCC(=O)NC2=O)cc1C(C)(C)C [IA-L1-1.11, (E)-N-(4-(3-tert-butyl-5-(2,4-dioxotetrahydropyrimidin-1(2H)-yl)-2-methoxystyryl)phenyl)-N-(methylsulfonyl)acetamide]	< 0.01 µM	< 0.01 µM	0.01 to 0.1 µM	0.01 to 0.1 µM	–
COc1c(/C=C/c2ccc(F)cc2)cc(N2CCC(=O)NC2=O)cc1C(C)(C)C [IA-L1-1.12, (E)-1-(3-tert-butyl-5-(4-fluorostyryl)-4-methoxyphenyl) dihydropyrimidine-2,4(1H,3H)-dione]	0.1 to 1 µM	0.1 to 1 µM	0.1 to 1 µM	0.1 to 1 µM	–
COc1c(/C=C/c2ccc(N)cc2)cc(N2CCC(=O)NC2=O)cc1C(C)(C)C [IA-L1-1.13, (E)-1-(3-(4-aminostyryl)-5-tert-butyl-4-methoxyphenyl)dihydropyrimidine-2,4(1H,3H)-dione]	> 1 µM	0.1 to 1 µM	0.1 to 1 µM	0.1 to 1 µM	–
COc1ccc(/C=C/c2cc(N3CCC(=O)NC3=O)cc(C(C)(C)C)c2OC)cc1 [IA-L1-1.14, (E)-1-(3-tert-butyl-4-methoxy-5-(4-methoxystyryl)phenyl)dihydropyrimidine-2,4(1H,3H)-dione]	> 1 µM	> 1 µM	> 1 µM	> 1 µM	–
CC(C)(C)c1cc(/C=C/c2ccc(NS(C)(=O)=O)cc2)cc(N2CCC(=O)NC2=O)c1 [IA-L1-1.16, (E)-N-(4-(3-tert-butyl-5-(2,4-dioxotetrahydropyrimidin-1(2H)-yl)styryl)phenyl)methanesulfonamide]	0.01 to 0.1 µM	0.01 to 0.1 µM	< 0.01 µM	< 0.01 µM	–
CO/C(=C\c1cc(N2CCC(=O)NC2=O)cc(C(C)(C)C)c1OC)c1ccc(NS(C)(=O)=O)cc1 [IA-L1-1.17, (Z)-N-(4-(2-(3-tert-butyl-5-(2,4-dioxotetrahydropyrimidin-1(2H)-yl)-2-methoxyphenyl)-1-methoxyvinyl)phenyl)methanesulfonamide]	0.01 to 0.1 µM	0.01 to 0.1 µM	0.01 to 0.1 µM	0.01 to 0.1 µM	–
COc1c(/C=C/c2ccccc2)cc(N2CCC(=O)NC2=O)cc1C(C)(C)C [IA-L1-1.18, (E)-1-(3-tert-butyl-4-methoxy-5-styrylphenyl)dihydro-pyrimidine-2,4(1H,3H)-dione]	0.1 to 1 µM	0.1 to 1 µM	0.1 to 1 µM	0.1 to 1 µM	–
COc1c(/C=C\c2ccc(NS(C)(=O)=O)cc2)cc(N2CCC(=O)NC2=O)cc1C(C)(C)C [IA-L1-1.20, (Z)-N-(4-(3-tert-butyl-5-(2,4-dioxotetrahydropyrimidin-1(2H)-yl)-2-methoxystyryl)phenyl)methanesulfonamide]	0.01 to 0.1 µM	0.01 to 0.1 µM	–	–	–
COc1c(/C=C/c2ccc([N+](=O)[O-])cc2)cc(N2CCC(=O)NC2=O)cc1C(C)(C)C [IA-L1-1.22, (E)-1-(3-tert-butyl-4-methoxy-5-(4-nitrostyryl)phenyl)dihydropyrimidine-2,4(1H,3H)-dione]	> 1 µM	0.1 to 1 µM	0.1 to 1 µM	0.1 to 1 µM	–
COc1c(/C=C(\Cl)c2ccc([N+](=O)[O-])cc2)cc(N2CCC(=O)NC2=O)cc1C(C)(C)C [IA-L1-1.23, 1-{3-tert-butyl-5-[(Z)-2-chloro-2-(4-nitro-phenyl)-vinyl]-4-methoxy-phenyl}-dihydropyrimidine-2,4-dione]	> 1 µM	> 1 µM	0.1 to 1 µM	0.1 to 1 µM	–
COc1c(/C=C(\C)c2ccc([N+](=O)[O-])cc2)cc(N2CCC(=O)NC2=O)cc1C(C)(C)C [IA-L1-1.24, 1-{3-tert-butyl-4-methoxy-5-[(E)-2-(4-nitro-phenyl)-propenyl]-phenyl}-dihydro-pyrimidine-2,4-dione]	> 1 µM	> 1 µM	> 1 µM	> 1 µM	–
CC(C)(C)c1cc(/C=C/c2ccc([N+](=O)[O-])cc2)cc(N2CCC(=O)NC2=O)c1 [IA-L1-1.25, 1-{3-tert-Butyl-5-[(E)-2-(4-nitro-phenyl)-vinyl]-phenyl}-dihydro-pyrimidine-2,4-dione]	–	–	> 1 µM	> 1 µM	–
COc1c(/C=C/c2ccc(NS(C)(=O)=O)c(F)c2)cc(N2CCC(=O)NC2=O)cc1C(C)(C)C [IA-L1-1.26, (E)-N-(4-(3-tert-butyl-5-(2,4-dioxotetrahydropyrimidin-1(2H)-yl)-2-methoxystyryl)-2-fluorophenyl)methanesulfonamide]	0.01 to 0.1 µM	0.01 to 0.1 µM	0.01 to 0.1 µM	0.01 to 0.1 µM	–
COc1c(/C=C/c2ccc(NS(C)(=O)=O)cc2)cc(-n2cc(F)c(=O)[nH]c2=O)cc1C(C)(C)C [IB-L1-1.2, (E)-N-(4-(3-tert-butyl-5-(5-fluoro-2,4-dioxo-3,4-dihydropyrimidin-1(2H)-yl)-2-methoxystyryl)phenyl)methanesulfonamide]	–	–	0.01 to 0.1 µM	0.01 to 0.1 µM	0.01 to 0.1 µM
COc1c(/C=C/c2ccc(NS(C)(=O)=O)cc2)cc(-n2ccc(=O)[nH]c2=O)cc1-c1cccnc1 [IB-L1-1.53, (E)-N-(4-(5-(2,4-dioxo-3,4-dihydropyrimidin-1(2H)-yl)-2-methoxy-3-(pyridin-3-yl)styryl)phenyl)methanesulfonamide]	–	–	> 1 µM	> 1 µM	–
COc1c(/C=C/c2ccc(NS(C)(=O)=O)cc2)cc(-n2ccc(=O)[nH]c2=O)cc1-c1ccncc1 [IB-L1-1.55, (E)-N-(4-(5-(2,4-dioxo-3,4-dihydropyrimidin-1(2H)-yl)-2-methoxy-3-(pyridin-4-yl)styryl)phenyl)methanesulfonamide]	–	–	> 1 µM	> 1 µM	–
